Tests used:
[1] = target: T1, Aldehyde dehydrogenase 1A3 (ALDH1A3) (Homo sapiens, UniProt P47895); assay: X-ray crystal structure of the complex with NR6 (protein preincubated with […] NAD+); format: binding
T1 sequence (P47895 2-512): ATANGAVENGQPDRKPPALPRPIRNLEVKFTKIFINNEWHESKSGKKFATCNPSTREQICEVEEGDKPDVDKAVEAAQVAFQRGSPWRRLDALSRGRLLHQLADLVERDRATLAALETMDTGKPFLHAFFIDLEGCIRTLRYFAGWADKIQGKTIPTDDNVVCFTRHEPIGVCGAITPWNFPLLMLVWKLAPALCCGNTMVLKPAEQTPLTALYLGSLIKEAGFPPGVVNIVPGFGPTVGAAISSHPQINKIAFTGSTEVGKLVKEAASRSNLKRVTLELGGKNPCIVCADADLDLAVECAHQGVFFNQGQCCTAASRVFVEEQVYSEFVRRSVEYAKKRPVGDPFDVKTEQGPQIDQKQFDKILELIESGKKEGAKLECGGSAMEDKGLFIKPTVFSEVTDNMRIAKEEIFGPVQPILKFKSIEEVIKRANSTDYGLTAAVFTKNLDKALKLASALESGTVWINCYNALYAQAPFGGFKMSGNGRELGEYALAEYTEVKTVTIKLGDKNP

[2] = target: the molecule itself; assay: crystal structure; ALDH1A3 at 8 mg/mL preincubated with 1 mM NAD+ and 300 uM NR6; sitting drop vapor diffusion, 2.4 M sodium malonate pH 7.0, 20 °C; space group P2(1)22(1), two molecules per asymmetric unit

With `NC(=O)c1ccc[n+]([C@@H]2O[C@H](COP(=O)([O-])OP(=O)(O)OC[C@H]3O[C@@H](n4cnc5c(N)ncnc54)[C@H](O)[C@@H]3O)[C@@H](O)[C@H]2O)c1` [NAD+] as the molecule, how does the “X-ray crystal structure of the complex with NR6 (protein preincubated with 1 mM)” value [1] read?
The value was “both are bonded with one molecule of NAD^+ and one molecule of NR6”.

B1: human aldehyde dehydrogenase 1A3 (enzyme)
chain: MATANGAVENGQPDRKPPALPRPIRNLEVKFTKIFINNEWHESKSGKKFATCNPSTREQICEVEEGDKPDVDKAVEAAQVAFQRGSPWRRLDALSRGRLLHQLADLVERDRATLAALETMDTGKPFLHAFFIDLEGCIRTLRYFAGWADKIQGKTIPTDDNVVCFTRHEPIGVCGAITPWNFPLLMLVWKLAPALCCGNTMVLKPAEQTPLTALYLGSLIKEAGFPPGVVNIVPGFGPTVGAAISSHPQINKIAFTGSTEVGKLVKEAASRSNLKRVTLELGGKNPCIVCADADLDLAVECAHQGVFFNQGQCCTAASRVFVEEQVYSEFVRRSVEYAKKRPVGDPFDVKTEQGPQIDQKQFDKILELIESGKKEGAKLECGGSAMEDKGLFIKPTVFSEVTDNMRIAKEEIFGPVQPILKFKSIEEVIKRANSTDYGLTAAVFTKNLDKALKLASALESGTVWINCYNALYAQAPFGGFKMSGNGRELGEYALAEYTEVKTVTIKLGDKNP
notes: Aldehyde dehydrogenase 1A3 (ALDH1A3), human, recombinant; also called ALDH1A3; hALDH1A3; source: recombinant, purified
Does B1 bind [2]?
Result: binds

— paper PMC7835878, “A Selective Competitive Inhibitor of Aldehyde Dehydrogenase 1A3 Hinders Cancer Cell Growth, Invasiveness and Stemness In Vitro” (Cancers, 2021)
